Experimental data from US20060069132A1, “Azolecarboxamide herbicides” (priority 2004, published 2006).

How the values were obtained:
barnyardgrass [1] = assay: Test A pre-/postemergence herbicide test; assay type: in vivo, Echinochloa crus-galli
Summary of the method: (§1)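 Sandy loam soil given preemergence directed spray; plants at 2 to 10 cm, one- to two-leaf stage, sprayed to runoff postemergence, compounds in non-phytotoxic solvent with surfactant. Injury rated visually versus untreated controls after about ten greenhouse days, 0 (no effect) to 100 (complete control); dash means not tested.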

large crabgrass [2] = assay: Test A pre-/postemergence herbicide test; assay type: in vivo, Digitaria sanguinalis
Summary of the method: as §1

giant foxtail [3] = assay: Test A pre-/postemergence herbicide test; assay type: in vivo, Setaria faberi
Summary of the method: as §1

morningglory [4] = assay: Test A pre-/postemergence herbicide test; assay type: in vivo, Ipomoea spp.
Summary of the method: as §1

redroot pigweed = assay: Test A pre-/postemergence herbicide test; assay type: in vivo, Amaranthus retroflexus
Summary of the method: as §1

velvetleaf [5] = assay: Test A pre-/postemergence herbicide test; assay type: in vivo, Abutilon theophrasti
Summary of the method: as §1

barnyardgrass [6] = assay: Test B pre-/postemergence herbicide test; assay type: in vivo, Echinochloa crus-galli; conditions: for Barnyardgrass plant response rating: postemergence
Summary of the method: (§2)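 Evaluation is visual, comparing treated with control plants on a scale where 0 means no effect and 100 means full control. Treatments were preemergence, or postemergence on seedlings 2–18 cm tall, and held 13–15 days in the greenhouse.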

Surinam grass = assay: Test B pre-/postemergence herbicide test; assay type: in vivo, Urochloa decumbens; conditions: for Surinam Grass plant response rating: postemergence
Summary of the method: (§3)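 Herbicidal effect was judged by eye on a 0–100 scale after plants stood 13 to 15 days in the greenhouse following pre- or postemergence treatment with surfactant-containing formulations.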

cocklebur = assay: Test B pre-/postemergence herbicide test; assay type: in vivo, Xanthium strumarium; conditions: for Cocklebur plant response rating: postemergence
Summary of the method: as §2

corn = assay: Test B pre-/postemergence herbicide test; assay type: in vivo, Zea mays; conditions: for Corn plant response rating: postemergence
Summary of the method: as §3

large crabgrass [7] = assay: Test B pre-/postemergence herbicide test; assay type: in vivo, Digitaria sanguinalis; conditions: for Crabgrass, Large plant response rating: postemergence
Summary of the method: as §3

giant foxtail [8] = assay: Test B pre-/postemergence herbicide test; assay type: in vivo, Setaria faberi; conditions: for Foxtail, Giant plant response rating: postemergence
Summary of the method: as §3

lambsquarters = assay: Test B pre-/postemergence herbicide test; assay type: in vivo, Chenopodium album; conditions: for Lambsquarters plant response rating: postemergence
Summary of the method: as §3

morningglory [9] = assay: Test B pre-/postemergence herbicide test; assay type: in vivo, Ipomoea coccinea; conditions: for Morningglory plant response rating: postemergence
Summary of the method: as §2

pigweed = assay: Test B pre-/postemergence herbicide test; assay type: in vivo, Amaranthus retroflexus; conditions: for Pigweed plant response rating: postemergence
Summary of the method: as §3

rice [10] = assay: Test B pre-/postemergence herbicide test; assay type: in vivo, Oryza sativa; conditions: 0 = no effect, 100 = complete control, preemergence
Summary of the method: as §3

velvetleaf [11] = assay: Test B pre-/postemergence herbicide test; assay type: in vivo, Abutilon theophrasti; conditions: for Velvetleaf plant response rating: postemergence
Summary of the method: as §3

blackgrass = assay: Test B postemergence herbicide test; assay type: in vivo, Alopecurus myosuroides; conditions: postemergence
Summary of the method: (§4)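 Each value is a visual 0–100 response rating taken against controls 13 to 15 days after treatment in the greenhouse. Plants received formulated chemical postemergence at the 1- to 4-leaf stage or, in flooded paddy, at the 2-leaf stage.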

wheat = assay: Test B postemergence herbicide test; assay type: in vivo, Triticum aestivum; design: key to Wheat plant response rating: 0 = no effect, 100 = complete control; conditions: postemergence
Summary of the method: as §4

wild oat = assay: Test B postemergence herbicide test; assay type: in vivo, Avena fatua; conditions: postemergence
Summary of the method: as §4

rice [12] = assay: Test B flooded paddy test; assay type: in vivo, Oryza sativa; conditions: 1000 g ai/ha, scale 0 to 100 (0 no effect, 100 complete control)
Summary of the method: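 Treated at 2-leaf (paddy) or 1–4-leaf, 2–18 cm (postemergence); greenhouse 13–15 d; visual score vs control, 0 none to 100 complete control; dash = not tested.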

[13] = system: small flower umbrella sedge; assay: Test B flooded paddy test; assay type: in vivo, Cyperus difformis; conditions: 1000 g ai/ha, scale 0 to 100 (0 no effect, 100 complete control)
Summary of the method: as §4

ducksalad = assay: Test B flooded paddy test; assay type: in vivo, Heteranthera limosa; conditions: 1000 g ai/ha, scale 0 to 100 (0 no effect, 100 complete control)
Summary of the method: as §4

barnyardgrass [14] = assay: Test B flooded paddy test; assay type: in vivo, Echinochloa crus-galli; conditions: 1000 g ai/ha, scale 0 to 100 (0 no effect, 100 complete control)
Summary of the method: as §4

[15] = Postemergence, 500 g ai/ha, 0 to 100 scale, 0 no effect, 100 complete control
[16] = Postemergence, 2000 g ai/ha, 0 to 100 scale, 0 no effect, 100 complete control
[17] = Preemergence, 2000 g ai/ha, visual rating, 0 to 100 scale (0 no effect, 100 complete control)
[18] = preemergence, 500 g ai/ha, visual injury, 0 to 100 scale (0 no effect, 100 complete control)
[19] = 125 g ai/ha, 0 = no effect, 100 = complete control, preemergence
[20] = 500 g ai/ha, visual rating, 0 = no effect, 100 = complete control, preemergence
[21] = 125 g ai/ha, visual rating, scale 0 (no effect) to 100 (complete control)
[22] = 500 g ai/ha, scale 0 to 100, 0 is no effect, 100 is complete control

C#CCNC(=O)c1ccc(F)c(NC(=O)c2cc(C(C)(C)C)nn2CC)n1 [Compound 279]
Barnyardgrass plant response rating (barnyardgrass [1]; [15]): 20
Plant response rating, Barnyardgrass (barnyardgrass [1]; [16]): 40
Barnyardgrass plant response rating (barnyardgrass [1]; [17]): 55
Barnyardgrass plant response rating (barnyardgrass [1]; [18]): 5
Crabgrass, Large plant response rating (large crabgrass [2]; [15]): 10
Plant response rating, Crabgrass, Large (large crabgrass [2]; [16]): 20
Crabgrass, Large plant response rating (large crabgrass [2]; [17]): 70
Crabgrass, Large plant response rating (large crabgrass [2]; [18]): 70
Foxtail, Giant plant response rating (giant foxtail [3]; [15]): 10
Plant response rating, Foxtail, Giant (giant foxtail [3]; [16]): 20
Foxtail, Giant plant response rating (giant foxtail [3]; [17]): 60
Foxtail, Giant plant response rating (giant foxtail [3]; [18]): 25
Morningglory plant response rating (morningglory [4]; [15]): 5
Plant response rating, Morningglory (morningglory [4]; [16]): 5
Morningglory plant response rating (morningglory [4]; [17]): 20
Morningglory plant response rating (morningglory [4]; [18]): 10
Pigweed plant response rating (redroot pigweed; [15]): 70
Plant response rating, Pigweed (redroot pigweed; [16]): 60
Pigweed plant response rating (redroot pigweed; [17]): 100
Pigweed plant response rating (redroot pigweed; [18]): 95
Velvetleaf plant response rating (velvetleaf [5]; [15]): 20
Plant response rating, Velvetleaf (velvetleaf [5]; [16]): 20
Velvetleaf plant response rating (velvetleaf [5]; [17]): 30
Velvetleaf plant response rating (velvetleaf [5]; [18]): 10
Barnyardgrass plant response rating (0 to 100 scale) (barnyardgrass [6]; [19]): 20
Plant response rating, Barnyardgrass (barnyardgrass [6]; [20]): 40
Barnyardgrass plant response rating (barnyardgrass [6]; [21]): 0
Barnyardgrass plant response rating (barnyardgrass [6]; [22]): 10
Surinam Grass plant response rating (0 to 100 scale) (Surinam grass; [19]): 0
Plant response rating, Surinam Grass (Surinam grass; [20]): 40
Surinam Grass plant response rating (Surinam grass; [21]): 10
Surinam Grass plant response rating (Surinam grass; [22]): 10
Cocklebur plant response rating (0 to 100 scale) (cocklebur; [19]): 0
Plant response rating, Cocklebur (cocklebur; [20]): 0
Cocklebur plant response rating (cocklebur; [21]): 0
Cocklebur plant response rating (cocklebur; [22]): 20
Corn plant response rating (0 to 100 scale) (corn; [19]): 0
Plant response rating, Corn (corn; [20]): 0
Corn plant response rating (corn; [21]): 10
Corn plant response rating (corn; [22]): 10
Crabgrass, Large plant response rating (0 to 100 scale) (large crabgrass [7]; [19]): 10
Plant response rating, Crabgrass, Large (large crabgrass [7]; [20]): 80
Crabgrass, Large plant response rating (large crabgrass [7]; [21]): 0
Crabgrass, Large plant response rating (large crabgrass [7]; [22]): 10
Foxtail, Giant plant response rating (0 to 100 scale) (giant foxtail [8]; [19]): 10
Plant response rating, Foxtail, Giant (giant foxtail [8]; [20]): 30
Foxtail, Giant plant response rating (giant foxtail [8]; [21]): 0
Foxtail, Giant plant response rating (giant foxtail [8]; [22]): 0
Lambsquarters plant response rating (0 to 100 scale) (lambsquarters; [19]): 100
Plant response rating, Lambsquarters (lambsquarters; [20]): 100
Lambsquarters plant response rating (lambsquarters; [21]): 10
Lambsquarters plant response rating (lambsquarters; [22]): 20
Morningglory plant response rating (0 to 100 scale) (morningglory [9]; [19]): 0
Plant response rating, Morningglory (morningglory [9]; [20]): 0
Morningglory plant response rating (morningglory [9]; [21]): 0
Morningglory plant response rating (morningglory [9]; [22]): 20
Pigweed plant response rating (0 to 100 scale) (pigweed; [19]): 90
Plant response rating, Pigweed (pigweed; [20]): 100
Pigweed plant response rating (pigweed; [21]): 30
Pigweed plant response rating (pigweed; [22]): 30
Rice plant response rating (0 to 100 scale) (rice [10]; 125 g ai/ha): 20
Plant response rating, Rice (rice [10]; 500 g ai/ha, visual rating): 50
Velvetleaf plant response rating (0 to 100 scale) (velvetleaf [11]; [19]): 0
Plant response rating, Velvetleaf (velvetleaf [11]; [20]): 20
Velvetleaf plant response rating (velvetleaf [11]; [21]): 10
Velvetleaf plant response rating (velvetleaf [11]; [22]): 10
Blackgrass plant response rating (blackgrass; [21]): 10
Blackgrass plant response rating (blackgrass; [22]): 30
Wheat plant response rating (wheat; [21]): 30
Wheat plant response rating (wheat; [22]): 30
Oat, Wild plant response rating (wild oat; [21]): 20
Oat, Wild plant response rating (wild oat; [22]): 20
Rice plant response rating (rice [12]): 40
Sedge, Umbrella plant response rating [13]: 60
Ducksalad plant response rating (ducksalad): 60
Barnyardgrass plant response rating (barnyardgrass [14]): 10
